# Measured values reported in patent US8273890B2 (4SC AG, priority 2007, dated 2012).
# Target: T1, recombinant Plk1 protein (Homo sapiens, UniProt P53350)
# T1 construct: histidine tag (N); made in house; host or cells: SF9 insect cells
# Assay: Plk1 kinase activity inhibition assay (33P-ATP, alpha casein substrate, flash plates)
# Type: biochemical
# Conditions: enzymatic assay, 100 nM Li-ATP, 80 minutes at 30° C.
# How it was run: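 N-terminally His-tagged human Plk1 from SF9 cells (50–100 ng/well) phosphorylated alpha casein (500 ng/well) with 100 nM ATP including 33P-ATP at pH 7.5, with Mg2+ and Mn2+, 80 min at 30 °C. 33P incorporation read on scintillator-coated flash plates; IC50 derived.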
# T1 sequence (P53350 whole entry): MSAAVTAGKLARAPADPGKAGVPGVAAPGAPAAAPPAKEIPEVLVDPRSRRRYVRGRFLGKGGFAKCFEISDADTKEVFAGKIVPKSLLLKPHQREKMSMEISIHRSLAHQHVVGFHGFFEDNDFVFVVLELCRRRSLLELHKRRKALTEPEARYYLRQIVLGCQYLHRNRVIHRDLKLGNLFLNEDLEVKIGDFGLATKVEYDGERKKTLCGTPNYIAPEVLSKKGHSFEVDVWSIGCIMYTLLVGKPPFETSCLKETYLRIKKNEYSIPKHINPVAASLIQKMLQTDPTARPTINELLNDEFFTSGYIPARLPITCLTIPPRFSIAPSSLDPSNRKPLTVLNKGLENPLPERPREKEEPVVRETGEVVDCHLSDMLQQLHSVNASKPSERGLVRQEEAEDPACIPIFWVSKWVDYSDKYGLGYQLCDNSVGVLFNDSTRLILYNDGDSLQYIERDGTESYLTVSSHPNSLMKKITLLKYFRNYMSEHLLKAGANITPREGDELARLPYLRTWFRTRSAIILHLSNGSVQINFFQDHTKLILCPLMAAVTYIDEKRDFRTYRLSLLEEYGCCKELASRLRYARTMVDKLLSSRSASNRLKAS
row,IC50,SMILES
1,0.01 to 0.1 µM,"NC(=O)c1sc(-n2cnc3cnc(Cl)cc32)cc1OCc1ccccc1C(F)(F)F [Example 1, 5-(6-Chloro-1H-imidazo[4,5-c]pyridin-1-yl)-3-{[2-(trifluoromethyl)benzyl]oxy}thiophene-2-carboxamide]"
2,0.01 to 0.1 µM,"NC(=O)c1sc(-n2cnc3cnccc32)cc1OCc1ccccc1C(F)(F)F [Example 2, 5-(1H-Imidazo[4,5-c]pyridin-1-yl)-3-{[2-(trifluoromethyl)benzyl]oxy}thio-phene-2-carboxamide]"
3,0.01 to 0.1 µM,"NC(=O)c1sc(-n2cnc3ccncc32)cc1OCc1c(Cl)cccc1Cl [Example 43, 3-[(2,6-dichlorobenzyl)oxy]-5-(3H-imidazo[4,5-c]pyridin-3-yl)thiophene-2-carboxamide]"
4,1 to 10 µM,"CCOc1ccc(OCC)c(COc2cc(-n3cnc4cnc(CO)cc43)sc2C(N)=O)c1 [Example 109, 3-[(2,5-diethoxybenzyl)oxy]-5-[6-(hydroxymethyl)-1H-imidazo[4,5-c]pyridin-1-yl]thiophene-2-carboxamide]"
5,0.01 to 0.1 µM,"CC(Oc1cc(-n2cnc3ccncc32)sc1C(N)=O)c1ccccc1C(F)(F)F (centres unmarked) [Example 13, 5-(3H-Imidazo[4,5-c]pyridin-3-yl)-3-{1-[2-(trifluoromethyl)phenyl]ethoxy}thiophene-2-carboxamide]"
6,0.1 to 1 µM,"CC(Oc1cc(-n2cnc3cc(CNC4CCC4)ncc32)sc1C(N)=O)c1ccccc1C(F)(F)F (centres unmarked) [Example 111, 5-{6-[(cyclobutylamino)methyl]-3H-imidazo[4,5-c]pyridin-3-yl}-3-{-1-[2-(trifluoromethyl)phenyl]ethoxy}thiophene-2-carboxamide]"
7,< 0.01 µM,"C[C@@H](Oc1cc(-n2cnc3cnc(CN4C[C@@H]5C[C@H]4CN5)cc32)sc1C(N)=O)c1ccccc1C(F)(F)F [Example 95, 5-{6-[(1S,4S)-2,5-diazabicyclo[2.2.1]hept-2-ylmethyl]-1H-imidazo[4,5-c]pyridin-1-yl}-3-{(1R)-1-[2-(trifluoromethyl)phenyl]ethoxy}thiophene-2-carboxamide]"
8,1 to 10 µM,"CN(CCN1CCOCC1)C(=O)c1cc2c(cn1)ncn2-c1cc(OCc2ccccc2C(F)(F)F)c(C(N)=O)s1 [Example 11, 1-(5-Carbamoyl-4-{[2-(trifluoromethyl)benzyl]oxy}-2-thienyl)-N-methyl-N-(2-morpholin-4-ylethyl)-1H-imidazo[4,5-c]pyridine-6-carboxamide]"
9,0.1 to 1 µM,"C[C@@H](Oc1cc(-n2cnc3cnc(CN4CCN(CCN(C)C)CC4)cc32)sc1C(N)=O)c1ccccc1F [Example 136, 5-[6-({4-[2-(dimethylamino)ethyl]piperazin-1-yl}methyl)-1H-imidazo[4,5-c]pyridin-1-yl]-3-[(1R)-1-(2-fluorophenyl)ethoxy]thiophene-2-carboxamide]"
10,< 0.01 µM,"CCc1ccccc1COc1cc(-n2cnc3cnc(CN4CCN(C)CC4)cc32)sc1C(N)=O [Example 153, 3-[(2-ethylbenzyl)oxy]-5-{6-[(4-methylpiperazin-1-yl)methyl]-1H-imidazo[4,5-c]pyridin-1-yl}thiophene-2-carboxamide]"
11,< 0.01 µM,"C[C@@H](Oc1cc(-n2cnc3cnc(CO)cc32)sc1C(N)=O)c1ccccc1F [Example 55, 3-[(1R)-1-(2-fluorophenyl)ethoxy]-5-[6-(hydroxymethyl)-1H-imidazo[4,5-c]pyridin-1-yl]thiophene-2-carboxamide]"
12,< 0.01 µM,CC(Oc1cc(-n2cnc3cnc(CO)cc32)sc1C(N)=O)c1ccccc1F (centres unmarked) [Example 57]

# Test system: not given
# Assay: not given
# Conditions: not given
row,melting point,SMILES
1,248 to 249 °C (dec.),"NC(=O)c1sc(-n2cnc3cnc(Cl)cc32)cc1OCc1ccccc1C(F)(F)F [Example 1, 5-(6-Chloro-1H-imidazo[4,5-c]pyridin-1-yl)-3-{[2-(trifluoromethyl)benzyl]oxy}thiophene-2-carboxamide]"
2,226 to 227 °C (dec.),"NC(=O)c1sc(-n2cnc3cnccc32)cc1OCc1ccccc1C(F)(F)F [Example 2, 5-(1H-Imidazo[4,5-c]pyridin-1-yl)-3-{[2-(trifluoromethyl)benzyl]oxy}thio-phene-2-carboxamide]"
